Source: PubChem BioAssay (NCI)
Several values for one entry are separate records, joined by “and”; a condition that tells them apart may be missing. Equal values may be shown once.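 Growth conditions: 96-well plates. Treatment: test compound, 48 hours, 5 concentrations. Analysis: linear interpolation between bracketing concentrations; unreached endpoints set to highest concentration. GI50 marks 50% less growth. TGI marks complete inhibition of growth.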

Experiments:
Test in all cases: inhibition of tumour cell growth, NCI panel, 48 h
MALME-3M melanoma = tested on: MALME-3M melanoma
COLO 205 colon = tested on: COLO 205 colon
U251 CNS = tested on: U251 CNS
SF-295 CNS = tested on: SF-295 CNS
UACC-62 melanoma = tested on: UACC-62 melanoma
HL-60(TB) leukemia = tested on: HL-60(TB) leukemia
SNB-75 CNS = tested on: SNB-75 CNS
SF-539 CNS = tested on: SF-539 CNS
LOX IMVI melanoma = tested on: LOX IMVI melanoma
MCF7 breast = tested on: MCF7 breast

Row | Structure (SMILES) | TGI (MALME-3M melanoma) | GI50 (COLO 205 colon) | TGI (COLO 205 colon) | TGI (U251 CNS) | GI50 (SF-295 CNS) | TGI (SF-295 CNS) | GI50 (UACC-62 melanoma) | TGI (UACC-62 melanoma) | GI50 (HL-60(TB) leukemia) | TGI (HL-60(TB) leukemia) | GI50 (SNB-75 CNS) | TGI (SNB-75 CNS) | TGI (SF-539 CNS) | TGI (LOX IMVI melanoma) | GI50 (U251 CNS) [µM] | GI50 (MCF7 breast) [µM] | TGI (MCF7 breast) [µM] | GI50 (SF-539 CNS) [µM] | GI50 (LOX IMVI melanoma) [µM] | GI50 (MALME-3M melanoma) [µM]
1 | Cc1ccc(SSCC(O)C(O)CSSc2ccc(C)cc2)cc1 (configuration not stated) | 36 µM and 30.7 µM | 1.99 µM and 14.2 µM | 3.75 µM and 27.3 µM | 10.9 µM and 12 µM | 4.31 µM and 12.6 µM | 16.4 µM and 26.1 µM | 4.81 µM and 15.8 µM | 17.2 µM and 31 µM | 1.01 µM and 4.6 µM | 3.1 µM and 25.6 µM | 5.97 µM and 16.2 µM | 22.2 µM and 31.8 µM | 8.17 µM and 14.3 µM | 2.78 µM and 4.21 µM |  |  |  |  |  | 
2 | CCOC(=O)c1c(-c2ccccc2)[n+](=O)c2cc(F)c(F)cc2n1[O-] |  |  |  | 2.71 µM | 2.08 µM | 3.84 µM |  |  | 0.717 µM | 3.77 µM | 1.75 µM | 3.64 µM | 3.68 µM | 0.298 µM | 1.25 | 2.76 | 10.5 | 1.95 | 0.157 | 
3 | CN1CCN=C1c1nnn(-c2ccc([N+](=O)[O-])cc2)c1-c1ccccc1 | > 100 µM |  | > 100 µM | > 100 µM |  | > 100 µM |  | > 100 µM |  | 61.4 µM |  | > 100 µM | > 100 µM | > 100 µM |  |  |  |  |  | 
4 | COc1ccc(-c2cc3ccccc3[nH]c2=O)cc1OC | > 100 µM |  | > 100 µM | > 100 µM |  | > 100 µM |  | > 100 µM |  | > 100 µM |  | > 100 µM | > 100 µM | > 100 µM |  |  |  |  |  | 
5 | O=C1CC(C2(O)C(=O)Nc3ccc([N+](=O)[O-])cc32)c2ccccc21 (configuration not stated) | > 100 µM |  | 71.6 µM | 37.8 µM |  | > 100 µM |  | 40.2 µM |  | 45.3 µM |  | > 100 µM | 64.1 µM | 33 µM |  |  |  |  |  | 
6 | O=C1C(Cl)=C(Cl)C(=O)N1c1ccc(Cl)c(Cl)c1Cl | > 100 µM |  | > 100 µM | > 100 µM |  | > 100 µM |  | > 100 µM |  | 46.2 µM |  | > 100 µM | > 100 µM | > 100 µM |  |  |  |  |  | 
7 | COc1cc2c(cc1OC)C(C(CBr)CBr)N(C1CCCC1)CC2 (configuration not stated) | > 100 µM |  | > 100 µM | > 100 µM |  | > 100 µM |  | > 100 µM |  | > 100 µM |  | > 100 µM | > 100 µM | > 100 µM |  |  |  |  |  | 
8 | COc1ccc(N2C(=O)[C@@H](N=[N+]=[N-])[C@@H]2[C@H]2COC(C)(C)O2)cc1 | > 100 µM |  | > 100 µM | > 100 µM |  | > 100 µM |  | > 100 µM |  | > 100 µM |  | > 100 µM | > 100 µM |  |  |  |  |  |  | 
9 | COc1cc(C)cc(C(=O)/C=C/c2ccccc2)c1O |  |  | 38.1 µM | 35.6 µM |  | 39.4 µM |  | 33.6 µM |  | > 100 µM |  | 72.1 µM |  | 34.8 µM |  |  | 49 |  |  | 
10 | Cc1cc(=O)[nH]c(NNC(C#N)c2ccccc2O)n1 (configuration not stated) | > 100 µM |  | > 100 µM | > 100 µM |  | > 100 µM |  | 70.3 µM |  | 50.5 µM |  | > 100 µM | > 100 µM | > 100 µM |  |  |  |  |  | 
11 | Cc1ccccc1-n1c(=S)[nH]c2c(sc(=O)n2-c2ccccc2C)c1=O | > 100 µM |  | > 100 µM | > 100 µM |  | > 100 µM |  | > 100 µM |  | > 100 µM |  | > 100 µM | > 100 µM |  |  |  |  |  |  | 
12 | CCCCCCCC(=O)[O-].CCCCCCCC(=O)[O-].N.N.N.N.[Co+3].[O-][Cl+3]([O-])([O-])[O-] | > 100 µM | > 100 µM | > 100 µM |  | > 100 µM | > 100 µM | > 100 µM | > 100 µM | > 100 µM | > 100 µM | > 100 µM | > 100 µM | > 100 µM |  |  |  |  | > 100 |  | > 100
13 | COc1ccc(NC(=O)CC(=O)N/N=C(\C)c2cc3ccccc3oc2=O)cc1 | > 100 µM |  | > 100 µM | > 100 µM |  | > 100 µM |  | > 100 µM |  | > 100 µM |  | > 100 µM | > 100 µM | > 100 µM |  |  |  |  |  | 
14 | CC(C)C1(NC(=O)C2CC3c4cccc5[nH]cc(c45)CC3N(C)C2)OC2(O)C3CCCN3C(=O)C(Cc3ccccc3)N2C1=O (configuration not stated) |  |  | > 100 µM | > 100 µM |  | > 100 µM |  | > 100 µM |  | 24.9 µM |  | 86.8 µM | > 100 µM | 47.7 µM |  |  | > 100 |  |  | 
15 | COc1ccc(Br)c(CN2CCc3ccccc32)c1OS(=O)(=O)c1ccc(C)cc1 | > 100 µM |  | 33.8 µM |  |  | > 100 µM |  |  |  | > 100 µM |  | 88.8 µM | 57.8 µM |  |  |  |  |  |  | 
16 | CC1CCCC(C#N)(NOC2=NCCN2)C1 (configuration not stated) |  | 61.3 µM | > 100 µM | 78.7 µM | 31 µM | > 100 µM | 26.4 µM | 94.8 µM | 16.8 µM | 93 µM | 40.3 µM | > 100 µM | 40.4 µM | 25.4 µM | 23.4 | 42.2 | > 100 | 15.5 | 12.7 | 
17 | CCCCCCC(=O)C/C(CCC(=O)N(Cc1ccccc1)Cc1ccccc1)=N\NC(N)=O | > 100 µM |  | > 100 µM | > 100 µM |  | > 100 µM |  | > 100 µM |  | > 100 µM |  | > 100 µM | > 100 µM | > 100 µM |  |  |  |  |  | 
18 | CC(C)=Cc1cc(CCC/C(C)=C/Cc2c(O)cc(C)c(C(=O)O)c2O)co1 |  |  | > 100 µM | > 100 µM |  | > 100 µM |  | > 100 µM |  |  |  | > 100 µM | > 100 µM | > 100 µM |  |  | > 100 |  |  | 
19 | C=C(C)[C@@H]1CCc2c(O)c(O)c(=O)cc(C)c2C1 | 35 µM |  | 15 µM | > 100 µM |  | > 100 µM |  | 48.3 µM |  |  |  | > 83.3 µM | 7.4 µM | > 100 µM |  |  | 20.7 |  |  | 
20 | CC(/C=C/C(=O)c1sc(C(N)=S)nc1C)=C\c1ccccc1 | > 100 µM |  | > 100 µM | > 100 µM |  | > 100 µM |  | > 100 µM |  | > 100 µM |  | > 100 µM | > 100 µM | 40.2 µM |  |  |  |  |  | 
